“Also recorded” adds a separate entry of the source. Bridge positions count the residues as written; N and C are the ends. Peptide text beside a SMILES is read from it.

For assay [1], the system named is healthy donor keratinocytes. Nature of the assay: Transepithelial electrical resistance (TEER) assay, healthy donor keratinocytes. Format: cell-based, human. The note with it: 1 μM, 9 days, p > 0.05, n = 54. An excerpt: KLK5 regulates epidermal barrier homeostasis by targeting corneodesmosomal proteins involved in cell–cell adhesion, including desmoglein-1 (DSG1), desmocollin-1 (DSC1), and corneodesmosin (CDSN). Dysregulated KLK5 activity can accelerate the degradation of these adhesion molecules, leading to impaired corneocyte cohesion and disruption of the epithelial barrier. To assess whether control of KLK5 activity by lead 7 could improve barrier integrity, the resistance of epidermal sheets generated using NS and healthy donor keratinocytes was measured using a transepithelial electrical resistance (TEER) assay. Keratinocytes from NS keratinocyte and three healthy donors were seeded in 6-well plates and cultured in the medium with 1 μM of lead 7 or without. The medium was replaced every 3 days with fresh lead 7 added in the treated groups. TEER measurements were performed every other day, and cultures were maintained until TEER values reached a plateau (9 days).
Transepithelial Electrical Resistance (TEER) assay […]
Transepithelial electrical resistance (TEER) values in ohms (Ω) were measured using the EVOM™ Manual Resistance Meter (World Precision Instruments, cat no. EVM-MT-03-02). Background resistance was first recorded using inserts containing only medium (without cells). […]
One-way ANOVA was used for KLK5 activity study. […] TEER study data was analysed using the Wilcoxon […]

Assay [2] relates to KLK5-mediated PAR2 activation. In words: PAR2-dependent intracellular calcium mobilization assay in N/TERT keratinocytes. Format: cell-based. The note with it: 2.5 to 40 μM, rKLK5 10 μM, preincubated one hour, n = 3, listed as lead 7. An excerpt: PAR2, a member of the G-protein-coupled receptor family expressed in keratinocytes, is a known downstream target of KLK5. KLK5 activates PAR2 by cleaving its extracellular N-terminal domain. This cleavage exposes a tethered ligand, which binds PAR2 intramolecularly to activate the receptor. , Activated PAR2 causes protein kinase C (PKC) and inositol 1,4,5-trisphosphate (IP3) activation, leading to calcium release from the endoplasmic reticulum, known as intracellular calcium mobilization. […] This delay is attributed to the time required for KLK5 to enzymatically cleave the extracellular N-terminal domain of PAR2, thereby exposing the tethered ligand sequence necessary to initiate receptor activation and downstream calcium signaling. […] This observation confirmed PAR2-dependent calcium mobilization and that rKLK5 could initiate PAR2 activation. The inhibition potential of lead 7 on KLK5 activity was then assessed by using this assay. rKLK5 was preincubated with lead 7 at concentrations of 2.5, 5, 20, or 40 μM for one hour before being applied to cultured keratinocytes, after which PAR2-dependent calcium mobilization was measured.
For Ki calculation, Km values for KLK5 and its substrate Boc-VPR-AMC were previously reported in the literature 8, 9, allowing the conversion from IC50 to Ki using the Cheng Prusoff equation10 Kᵢ = IC₅₀ / (1 + [S]/Kₘ) for single-site competitive binding.
Cell lines and tissue cultures
Keratinocytes isolated from the skin in a patient with genetic skin disease Netherton Syndrome (NS19) and in healthy donors (C42, C46, P8) were used in the study. […]
The immortalized keratinocyte cell line (N/TERT)13, 14 were used for the assay. […] The cells were counted, and 100 µL of the suspension, at a density of 600,000 cells/mL, was seeded into each well of a 96 -well microplate. […]
calcium signalling. […] Fluorescence excitation was set at 485 nm, and emission was recorded at 520 nm using SpectraMax® i3x plate reader. […]

With `C[C@@H](O)[C@@H]1NC(=O)[C@@H]2CSSC[C@H](NC(=O)[C@H](CCC(=O)O)NC(=O)[C@@H]3CCCN3C(=O)[C@@H]3CCCN3C(=O)[C@H](CC(N)=O)NC(=O)[C@H](CO)NC(=O)[C@H](CCCNC(=N)N)NC1=O)C(=O)N[C@@H](Cc1c[nH]c3ccccc13)C(=O)N1CCC[C@H]1C(=O)N[C@@H](CC(N)=O)C(=O)NCC(=O)N[C@@H](Cc1ccccc1)C(=O)N2` [compound 7] (cyclo(GFCTRSNPPECWPN); disulfide 3-11), the “TEER, treated versus untreated healthy donor keratinocytes” value in assay [1] is on record as “no differences”. Also, the “PAR2-dependent calcium mobilization after rKLK5 preincubated with inhibitor” value in assay [2] was “dose-dependent reduction; also recorded: progressive reduction in calcium release”.

(Values after PMC12670400, “LEKTI-Grafted Sunflower Trypsin Inhibitor: A Potential Therapeutic for Skin Diseases” (Journal of Medicinal Chemistry, 2025).)
